What is called EC30 is the concentration needed for an effect of 30%.

Results on 15 compounds are retold here after ChEMBL document CHEMBL1136279, “Synthesis and insulin-sensitizing activity of a novel kind of benzopyran derivative” (2003).

In assay [1] the test system is 3T3-L1. Description: Percentage of rosiglitazone response for insulin-sensitizing activity at 1 uM concentration in 3T3-L1 cells. The assay is classed as functional, Mus musculus.
For assay [2], the system named is 3T3-L1. Description: Effective concentration for enhancement of insulin-induced triglyceride accumulation in 3T3-L1 cells. The assay is classed as functional. The conditions noted are these: Mus musculus.

SMILES strings stand for the structures.

For the compound `CCc1ccc(CCOc2ccc3cc(C(=O)O)c(=O)oc3c2)nc1`, the Insulin-sensitizing activity in the assay with 3T3-L1 [1] worked out at 15%. The same measure, in the same setting: under `CCc1ccc(CCOc2ccc3cc(C(=O)OC)c(=O)oc3c2)nc1` stands 46%. For `COC(=O)C1Cc2ccc(OCCN(C)c3nc4ccccc4o3)cc2OC1=O` (stereo not drawn), the Insulin-sensitizing activity in the assay with 3T3-L1 [1] was found to be 108%. Also, the EC30 in the assay on 3T3-L1 [2] was found to be 219 nM. With `COC(=O)c1cc2ccc(OCCN(C)C(=O)OC(C)(C)C)cc2oc1=O`, the Insulin-sensitizing activity with 3T3-L1 [1] turned out to be 115%. On the same count and under the same terms, under `COC(=O)C1Cc2cc(OCCc3nc(-c4ccccc4)oc3C)ccc2OC1=O` (stereo not drawn) stands 28%. On to `COC(=O)C1Cc2ccc(OCCc3nc(-c4ccccc4)oc3C)cc2OC1=O` (stereo not drawn), for which the Insulin-sensitizing activity in the assay with 3T3-L1 [1] was 132%. Further, the EC30 in the assay on 3T3-L1 [2] is 15.6 nM. Consider `COC(=O)c1cc2cc(OCCc3nc(-c4ccccc4)oc3C)ccc2oc1=O`, for which the Insulin-sensitizing activity in the assay on 3T3-L1 [1] is given as 33%. Consider `COC(=O)c1cc2ccc(OCCc3nc(-c4ccccc4)oc3C)cc2oc1=O`, for which, in the assay with 3T3-L1 [1], the Insulin-sensitizing activity is given as 129%. For the same compound, the EC30 with 3T3-L1 [2] was 8 nM. Take `COC(=O)c1cc2ccc(OCCn3ccc4ccccc43)cc2oc1=O`: in the assay on 3T3-L1 [1], the Insulin-sensitizing activity was determined as 108%. Moreover, the EC30 with 3T3-L1 [2] worked out at 344 nM. In the case of `CCc1ccc(CCOc2ccc3c(c2)OC(=O)C(C(=O)OC)C3)nc1` (stereo not drawn), the Insulin-sensitizing activity with 3T3-L1 [1] was 27%. Turning to `Cc1oc(-c2ccccc2)nc1CCOc1ccc2cc(C(=O)OC(C)(C)C)c(=O)oc2c1`, in the assay with 3T3-L1 [1], the Insulin-sensitizing activity turned out to be 89%. The EC30 with 3T3-L1 [2] was 382 nM. Regarding `Cc1oc(-c2ccccc2)nc1CCOc1ccc2c(c1)OC(=O)C(C(=O)O)C2` (stereo not drawn), in the assay on 3T3-L1 [1], the Insulin-sensitizing activity came out at 98%. Besides, the EC30 in the assay on 3T3-L1 [2] turned out to be 110 nM.

Regarding `O=C(O)c1cc2ccc(OCCn3ccc4ccccc43)cc2oc1=O`, the Insulin-sensitizing activity in the assay on 3T3-L1 [1] was 25%.

For `Cc1oc(-c2ccccc2)nc1CCOc1ccc2cc(C(=O)O)c(=O)oc2c1`, the Insulin-sensitizing activity with 3T3-L1 [1] is listed as 103%. The EC30 in the assay with 3T3-L1 [2] amounted to 300 nM.

With `CN(CCOc1ccc(CC2SC(=O)NC2=O)cc1)c1ccccn1` (stereo not drawn) [ROSIGLITAZONE], in the assay with 3T3-L1 [1], the Insulin-sensitizing activity was found to be 100%. Further, the EC30 in the assay on 3T3-L1 [2] was found to be 20.3 nM.
